The target of experiment [1] is T1, human transferrin receptor (hTfR) (Homo sapiens, UniProt P02786). Nature of the experiment: SPR measurement under pH 7.4 conditions (Biacore T200, CM3 chip, hTfR captured by His Tag antibody). The class given is binding. Particulars: SPR, pH 7.4; peptide with the linker named in the table; read-out: hTfR SPR pH7.4 KD. (In general: Surface plasmon resonance follows binding to a sensor surface in real time, without labels.)

For experiment [2], the target named is T1, human transferrin receptor (hTfR). The experiment can be described thus: SPR measurement under pH 6.0 conditions (Biacore T200, NTA chip, immobilized hTfR). The note with it: SPR, pH 6.0; peptide with the linker named in the table; read-out: hTfR SPR pH6.0 KD. Type of experiment: binding.

The term pKd denotes the negative decadic logarithm of the Kd, by convention in mol/L.

pKd: −log10 of the molar value. Numbered stars: 1 amine (or outer) side, 2 acyl side, 3 side chain; on linkers, the order of the positions; unused ones are H or OH. Bridge positions count the residues as written; N and C are the ends. Square brackets hold non-standard residues; d marks the D form. Peptide text beside a SMILES is read from it. * marks the point of attachment. NMePhe(4-COOH) = CN[C@@H](Cc1ccc(C(=O)O)cc1)C(=O)O; X1 = O=C([C@H](Cc1cccc(C(=O)[*:3])c1)N[*:1])[*:2]; Nle(6-morpholino) = N[C@@H](CCCCN1CCOCC1)C(=O)O; Trp(7-aza) = N[C@@H](Cc1c[nH]c2ncccc12)C(=O)O; NMePhe(3-Cl) = CN[C@@H](Cc1cccc(Cl)c1)C(=O)O; Trp(1-Me) = Cn1cc(C[C@H](N)C(=O)O)c2ccccc21; 3Pal(6-NH2) = Nc1ccc(C[C@H](N)C(=O)O)cn1; NMeW = CN[C@@H](Cc1c[nH]c2ccccc12)C(=O)O; NMeY = CN[C@@H](Cc1ccc(O)cc1)C(=O)O; Nva(3-Et) = CCC(CC)[C@H](N)C(=O)O; NMeF = CN[C@@H](Cc1ccccc1)C(=O)O; 4Pal = N[C@@H](Cc1ccncc1)C(=O)O; PEG4 = NCCOCCOCCOCCOCCC(=O)O; Carboxymethyl = O=C(O)C*

T1 sequence (P02786 whole entry): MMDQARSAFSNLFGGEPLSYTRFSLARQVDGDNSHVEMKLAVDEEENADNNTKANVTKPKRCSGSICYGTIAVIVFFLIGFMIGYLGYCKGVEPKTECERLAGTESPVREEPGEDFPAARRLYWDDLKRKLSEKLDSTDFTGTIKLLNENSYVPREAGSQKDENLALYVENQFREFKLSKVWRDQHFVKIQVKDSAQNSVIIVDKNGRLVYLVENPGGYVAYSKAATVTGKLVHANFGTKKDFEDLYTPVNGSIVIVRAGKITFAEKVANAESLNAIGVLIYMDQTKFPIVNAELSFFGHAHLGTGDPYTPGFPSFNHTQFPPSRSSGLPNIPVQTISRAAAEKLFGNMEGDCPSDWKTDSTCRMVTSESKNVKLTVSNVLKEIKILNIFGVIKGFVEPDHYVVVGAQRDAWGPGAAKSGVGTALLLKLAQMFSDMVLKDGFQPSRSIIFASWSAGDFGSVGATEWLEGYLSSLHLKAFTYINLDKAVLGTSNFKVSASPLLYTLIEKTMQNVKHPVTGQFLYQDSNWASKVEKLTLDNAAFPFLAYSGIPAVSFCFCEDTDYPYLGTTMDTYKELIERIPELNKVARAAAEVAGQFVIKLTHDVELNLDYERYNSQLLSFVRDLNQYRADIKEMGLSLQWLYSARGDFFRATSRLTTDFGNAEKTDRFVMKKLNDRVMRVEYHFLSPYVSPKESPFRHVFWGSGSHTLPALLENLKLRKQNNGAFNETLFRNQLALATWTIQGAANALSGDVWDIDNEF

Turning to `CCC(CC)[C@@H]1NC(=O)[C@H](Cc2ccc(OCC(=O)O)cc2)NC(=O)[C@H](Cc2ccc(O)cc2)NC(=O)[C@H](CC(N)=O)NC(=O)[C@H](Cc2c[nH]c3ccccc23)NC(=O)[C@H](C(C)C)NC(=O)[C@H](Cc2cccc(Cl)c2)N(C)C(=O)[C@H](C(C)C)NC(=O)[C@H](C)NC(=O)CSC[C@@H](C(=O)NCCOCCOCCOCCOCCC(N)=O)NC(=O)[C@H](Cc2ccc(C(=O)O)cc2)N(C)C(=O)[C@H](Cc2cccc(C(=O)NCCOCCOCCOCCOCCC(=O)O)c2)NC(=O)[C@H](CCCNC(=N)N)NC(=O)[C@H](CCC(N)=O)NC(=O)[C@H]([C@@H](C)CC)NC1=O` [compound 110] ({CH2CO}-AV[NMePhe(3-Cl)]VWNYY(Carboxymethyl)[Nva(3-Et)]IQR[X1](PEG4)[NMePhe(4-COOH)]C[PEG4]-NH2; thioether N-15), the pKd was 8.13 in experiment [1] and 7.89 in experiment [2].

In the case of `CCC(CC)[C@@H]1NC(=O)[C@H](Cc2ccc(OC)cc2)NC(=O)[C@H](Cc2ccc(O)cc2)NC(=O)[C@H](CC(N)=O)NC(=O)[C@H](Cc2c[nH]c3ccccc23)NC(=O)[C@H](C(C)C)NC(=O)[C@H](Cc2cccc(Cl)c2)N(C)C(=O)[C@H](C(C)C)NC(=O)[C@H](C)NC(=O)CSC[C@@H](C(=O)NCCOCCOCCOCCOCCC(N)=O)NC(=O)[C@H](Cc2ccc(C(=O)O)cc2)N(C)C(=O)[C@H](Cc2cccc(C(=O)NCCOCCOCCOCCOCCC(=O)O)c2)NC(=O)[C@H](CCCNC(=N)N)NC(=O)[C@H](CCC(N)=O)NC(=O)[C@H]([C@@H](C)CC)NC1=O` [compound 111] ({CH2CO}-AV[NMePhe(3-Cl)]VWNYY(Me)[Nva(3-Et)]IQR[X1](PEG4)[NMePhe(4-COOH)]C[PEG4]-NH2; thioether N-15), the pKd in experiment [1] is 8.69; in experiment [2], 8.46.

In the case of `CCC(CC)[C@@H]1NC(=O)[C@H](Cc2ccc(OCC(=O)O)cc2)NC(=O)[C@H](Cc2ccc(O)cc2)NC(=O)[C@H](CC(N)=O)NC(=O)[C@H](Cc2c[nH]c3ccccc23)NC(=O)[C@H](C(C)C)NC(=O)[C@H](Cc2cccc(Cl)c2)N(C)C(=O)[C@H](C(C)C)NC(=O)[C@H](C)NC(=O)CSC[C@@H](C(=O)NCCOCCOCCOCCOCCC(N)=O)NC(=O)[C@H](Cc2ccc(O)cc2)N(C)C(=O)[C@H](Cc2cccc(C(=O)NCCOCCOCCOCCOCCC(=O)O)c2)NC(=O)[C@H](CCCNC(=N)N)NC(=O)[C@H](CCC(N)=O)NC(=O)[C@H]([C@@H](C)CC)NC1=O` [compound 112] ({CH2CO}-AV[NMePhe(3-Cl)]VWNYY(Carboxymethyl)[Nva(3-Et)]IQR[X1](PEG4)[NMeY]C[PEG4]-NH2; thioether N-15), the pKd in experiment [1] is 8.45; in experiment [2] it was 7.94.

`CCC(CC)[C@@H]1NC(=O)[C@H](Cc2ccc(OC)cc2)NC(=O)[C@H](Cc2ccc(O)cc2)NC(=O)[C@H](CC(N)=O)NC(=O)[C@H](Cc2c[nH]c3ncccc23)NC(=O)[C@H](C(C)C)NC(=O)[C@H](Cc2cccc(Cl)c2)N(C)C(=O)[C@H](C(C)C)NC(=O)[C@H](C)NC(=O)CSC[C@@H](C(=O)NCCOCCOCCOCCOCCC(N)=O)NC(=O)[C@H](Cc2ccc(C(=O)O)cc2)N(C)C(=O)[C@H](Cc2ccncc2)NC(=O)[C@H](CCCNC(=N)N)NC(=O)[C@H](CCCCN2CCOCC2)NC(=O)[C@H]([C@@H](C)CC)NC1=O` [compound 114] ({CH2CO}-AV[NMePhe(3-Cl)]V[Trp(7-aza)]NYY(Me)[Nva(3-Et)]I[Nle(6-morpholino)]R[4Pal][NMePhe(4-COOH)]C[PEG4]-NH2; thioether N-15): the pKd in experiment [1] was 8.88; in experiment [2] it was 7.97.

Take `CC[C@H](C)[C@@H]1NC(=O)[C@H](Cc2ccc(OC)cc2)NC(=O)[C@H](Cc2ccc(N)nc2)NC(=O)[C@H](CC(N)=O)NC(=O)[C@H](Cc2c[nH]c3ccccc23)NC(=O)[C@H](C(C)C)NC(=O)[C@H](Cc2cccc(Cl)c2)N(C)C(=O)[C@H](C(C)C)NC(=O)[C@H](C)NC(=O)CSC[C@@H](C(=O)NCCOCCOCCOCCOCCC(N)=O)NC(=O)[C@H](Cc2ccc(C(=O)O)cc2)N(C)C(=O)[C@H](Cc2cccc(C(=O)NCCOCCOCCOCCOCCC(=O)O)c2)NC(=O)[C@H](CCCNC(=N)N)NC(=O)[C@H](CCC(N)=O)NC(=O)[C@H]([C@@H](C)CC)NC1=O` [compound 115] ({CH2CO}-AV[NMePhe(3-Cl)]VWN[3Pal(6-NH2)]Y(Me)IIQR[X1](PEG4)[NMePhe(4-COOH)]C[PEG4]-NH2; thioether N-15): the results for the pKd in experiment [1] and in experiment [2] were 8.74 and 7.90, respectively.

With `CC[C@H](C)[C@@H]1NC(=O)[C@H](Cc2ccc(OCC(=O)O)cc2)NC(=O)[C@H](Cc2ccc(N)nc2)NC(=O)[C@H](CC(N)=O)NC(=O)[C@H](Cc2c[nH]c3ccccc23)NC(=O)[C@H](C(C)C)NC(=O)[C@H](Cc2cccc(Cl)c2)N(C)C(=O)[C@H](C(C)C)NC(=O)[C@H](C)NC(=O)CSC[C@@H](C(=O)NCCOCCOCCOCCOCCC(N)=O)NC(=O)[C@H](Cc2ccc(C(=O)O)cc2)N(C)C(=O)[C@H](Cc2cccc(C(=O)NCCOCCOCCOCCOCCC(=O)O)c2)NC(=O)[C@H](CCCNC(=N)N)NC(=O)[C@H](CCC(N)=O)NC(=O)[C@H]([C@@H](C)CC)NC1=O` [compound 116] ({CH2CO}-AV[NMePhe(3-Cl)]VWN[3Pal(6-NH2)]Y(Carboxymethyl)IIQR[X1](PEG4)[NMePhe(4-COOH)]C[PEG4]-NH2; thioether N-15), the pKd in experiment [1] was 8.07; in experiment [2], 7.45.

On to `CCC(CC)[C@@H]1NC(=O)[C@H](Cc2ccc(O)cc2)NC(=O)[C@H](Cc2ccc(O)cc2)NC(=O)[C@H](CC(N)=O)NC(=O)[C@H](Cc2c[nH]c3ccccc23)N(C)C(=O)[C@H](C(C)C)NC(=O)[C@H](Cc2ccccc2)N(C)C(=O)[C@H](C(C)C)NC(=O)[C@H](C)NC(=O)CSC[C@@H](C(=O)NCCOCCOCCOCCOCCC(N)=O)NC(=O)[C@H](Cc2ccc(O)cc2)N(C)C(=O)[C@H](Cc2cccc(C(=O)NCCOCCOCCOCCOCCC(=O)O)c2)NC(=O)[C@H](CCCNC(=N)N)NC(=O)[C@H](CCCCN)NC(=O)[C@H]([C@@H](C)CC)NC1=O` [compound 120] ({CH2CO}-AV[NMeF]V[NMeW]NYY[Nva(3-Et)]IKR[X1](PEG4)[NMeY]C[PEG4]-NH2; thioether N-15), for which the pKd is 8.24 in experiment [1] and 7.88 in experiment [2].

For `CCC(CC)[C@@H]1NC(=O)[C@H](Cc2ccc(O)cc2)NC(=O)[C@H](Cc2ccc(O)cc2)NC(=O)[C@H](CC(N)=O)NC(=O)[C@H](Cc2c[nH]c3ccccc23)N(C)C(=O)[C@H](C(C)C)NC(=O)[C@H](Cc2ccccc2)N(C)C(=O)[C@H](C(C)C)NC(=O)[C@H](C)NC(=O)CSC[C@@H](C(=O)NCCOCCOCCOCCOCCC(N)=O)NC(=O)[C@H](Cc2ccc(C(=O)O)cc2)N(C)C(=O)[C@H](Cc2cccc(C(=O)NCCOCCOCCOCCOCCC(=O)O)c2)NC(=O)[C@H](CCCNC(=N)N)NC(=O)[C@H](CCCCN)NC(=O)[C@H]([C@@H](C)CC)NC1=O` [compound 122] ({CH2CO}-AV[NMeF]V[NMeW]NYY[Nva(3-Et)]IKR[X1](PEG4)[NMePhe(4-COOH)]C[PEG4]-NH2; thioether N-15), the negative logarithm of the Kd (pKd) in experiment [1] was 8.28; in experiment [2] it was 7.82.

For `CCC(CC)[C@@H]1NC(=O)[C@H](Cc2ccc(O)cc2)NC(=O)[C@H](Cc2ccc(O)cc2)NC(=O)[C@H](CC(N)=O)NC(=O)[C@H](Cc2cn(C)c3ccccc23)NC(=O)[C@H](C(C)C)NC(=O)[C@H](Cc2cccc(Cl)c2)N(C)C(=O)[C@H](C(C)C)NC(=O)[C@H](C)NC(=O)CSC[C@@H](C(=O)NCCOCCOCCOCCOCCC(N)=O)NC(=O)[C@H](Cc2ccc(O)cc2)N(C)C(=O)[C@H](Cc2ccncc2)NC(=O)[C@H](CCCNC(=N)N)NC(=O)[C@H](CCCCN)NC(=O)[C@H]([C@@H](C)CC)NC1=O` [compound 127] ({CH2CO}-AV[NMePhe(3-Cl)]V[Trp(1-Me)]NYY[Nva(3-Et)]IKR[4Pal][NMeY]C[PEG4]-NH2; thioether N-15), the pKd in experiment [1] was 8.80; in experiment [2] it was 8.28.

Consider `CCC(CC)[C@@H]1NC(=O)[C@H](Cc2ccc(OC)cc2)NC(=O)[C@H](Cc2ccc(O)cc2)NC(=O)[C@H](CC(N)=O)NC(=O)[C@H](Cc2cn(C)c3ccccc23)NC(=O)[C@H](C(C)C)NC(=O)[C@H](Cc2cccc(Cl)c2)N(C)C(=O)[C@H](C(C)C)NC(=O)[C@H](C)NC(=O)CSC[C@@H](C(=O)NCCOCCOCCOCCOCCC(N)=O)NC(=O)[C@H](Cc2ccc(O)cc2)N(C)C(=O)[C@H](Cc2ccncc2)NC(=O)[C@H](CCCNC(=N)N)NC(=O)[C@H](CCCCN)NC(=O)[C@H]([C@@H](C)CC)NC1=O` [compound 128] ({CH2CO}-AV[NMePhe(3-Cl)]V[Trp(1-Me)]NYY(Me)[Nva(3-Et)]IKR[4Pal][NMeY]C[PEG4]-NH2; thioether N-15), for which the pKd is 8.96 in experiment [1] and 8.49 in experiment [2].

Turning to `CC[C@H](C)[C@@H]1NC(=O)[C@H](Cc2ccc(OC)cc2)NC(=O)[C@H](Cc2ccc(O)cc2)NC(=O)[C@H](CC(N)=O)NC(=O)[C@H](Cc2cn(C)c3ccccc23)NC(=O)[C@H](C(C)C)NC(=O)[C@H](Cc2cccc(Cl)c2)N(C)C(=O)[C@H](C(C)C)NC(=O)[C@H](C)NC(=O)CSC[C@@H](C(=O)NCCOCCOCCOCCOCCC(N)=O)NC(=O)[C@H](Cc2ccc(O)cc2)N(C)C(=O)[C@H](Cc2ccncc2)NC(=O)[C@H](CCCNC(=N)N)NC(=O)[C@H](CCCCN)NC(=O)[C@H]([C@@H](C)CC)NC1=O` [compound 130], the pKd in experiment [1] was 9.17; in experiment [2] it was 8.76.

In the case of `CCC(CC)[C@@H]1NC(=O)[C@H](Cc2ccc(O)cc2)NC(=O)[C@H](Cc2ccc(N)nc2)NC(=O)[C@H](CC(N)=O)NC(=O)[C@H](Cc2c[nH]c3ccccc23)N(C)C(=O)[C@H](C(C)C)NC(=O)[C@H](Cc2ccccc2)N(C)C(=O)[C@H](C(C)C)NC(=O)[C@H](C)NC(=O)CSC[C@@H](C(=O)NCCOCCOCCOCCOCCC(N)=O)NC(=O)[C@H](Cc2ccc(O)cc2)N(C)C(=O)[C@H](Cc2ccc(O)cc2)NC(=O)[C@H](CCCNC(=N)N)NC(=O)[C@H](CCCCN)NC(=O)[C@H]([C@@H](C)CC)NC1=O` [compound 133] ({CH2CO}-AV[NMeF]V[NMeW]N[3Pal(6-NH2)]Y[Nva(3-Et)]IKRY[NMeY]C[PEG4]-NH2; thioether N-15), the pKd is 7.78 in experiment [1] and 7.69 in experiment [2].

Source of the values: patent publication EP4667483A1, “HUMAN TRANSFERRIN RECEPTOR-BINDING PEPTIDE” (JCR Pharmaceuticals Co., Ltd., priority 2023, dated 2024).
